{"source": "the NIST ThermoML archive (doi:10.1016/j.fluid.2018.09.024)", "note": "± gives the expanded uncertainty stated by the source.", "data": [{"experiment": "activity coefficient (dimensionless); of the first substance listed, at infinite dilution; xn = mol fraction of the nth substance listed", "settings": "318.15 K; 101.33 kPa; Liquid; Chromatography; x1 = 0", "values": [{"smiles": "CC1CCCCC1", "note": "[methylcyclohexane] + CCCCCCCCCCCC[N+](C)(C)CCOc1ccccc1.O=S(=O)([N-]S(=O)(=O)C(F)(F)F)C(F)(F)F", "activity coefficient": "2.35 ± 0.16"}, {"smiles": "CCCCCCCCC", "note": "[nonane] + CCCCCCCCCCCC[N+](C)(C)CCOc1ccccc1.O=S(=O)([N-]S(=O)(=O)C(F)(F)F)C(F)(F)F", "activity coefficient": "4.77 ± 0.33"}, {"smiles": "C=CCCCCCC", "note": "[oct-1-ene] + CCCCCCCCCCCC[N+](C)(C)CCOc1ccccc1.O=S(=O)([N-]S(=O)(=O)C(F)(F)F)C(F)(F)F", "activity coefficient": "2.97 ± 0.2"}, {"smiles": "CCCCCCCC", "note": "[octane] + CCCCCCCCCCCC[N+](C)(C)CCOc1ccccc1.O=S(=O)([N-]S(=O)(=O)C(F)(F)F)C(F)(F)F", "activity coefficient": "4.05 ± 0.28"}, {"smiles": "CCCCCO", "note": "[pentan-1-ol] + CCCCCCCCCCCC[N+](C)(C)CCOc1ccccc1.O=S(=O)([N-]S(=O)(=O)C(F)(F)F)C(F)(F)F", "activity coefficient": "1.34 ± 0.09"}, {"smiles": "CCCC(C)=O", "note": "[pentan-2-one] + CCCCCCCCCCCC[N+](C)(C)CCOc1ccccc1.O=S(=O)([N-]S(=O)(=O)C(F)(F)F)C(F)(F)F", "activity coefficient": "0.386 ± 0.033"}, {"smiles": "CCC(=O)CC", "note": "[pentan-3-one] + CCCCCCCCCCCC[N+](C)(C)CCOc1ccccc1.O=S(=O)([N-]S(=O)(=O)C(F)(F)F)C(F)(F)F", "activity coefficient": "0.387 ± 0.034"}, {"smiles": "CCCO", "note": "[propan-1-ol] + CCCCCCCCCCCC[N+](C)(C)CCOc1ccccc1.O=S(=O)([N-]S(=O)(=O)C(F)(F)F)C(F)(F)F", "activity coefficient": "1.28 ± 0.08"}, {"smiles": "CC(C)O", "note": "[propan-2-ol] + CCCCCCCCCCCC[N+](C)(C)CCOc1ccccc1.O=S(=O)([N-]S(=O)(=O)C(F)(F)F)C(F)(F)F", "activity coefficient": "1.27 ± 0.08"}, {"smiles": "CCCc1ccccc1", "note": "[propylbenzene] + CCCCCCCCCCCC[N+](C)(C)CCOc1ccccc1.O=S(=O)([N-]S(=O)(=O)C(F)(F)F)C(F)(F)F", "activity coefficient": "1.09 ± 0.07"}, {"smiles": "c1ccncc1", "note": "[pyridine] + CCCCCCCCCCCC[N+](C)(C)CCOc1ccccc1.O=S(=O)([N-]S(=O)(=O)C(F)(F)F)C(F)(F)F", "activity coefficient": "0.278 ± 0.03"}, {"smiles": "C=Cc1ccccc1", "note": "[styrene] + CCCCCCCCCCCC[N+](C)(C)CCOc1ccccc1.O=S(=O)([N-]S(=O)(=O)C(F)(F)F)C(F)(F)F", "activity coefficient": "0.632 ± 0.044"}, {"smiles": "C1CCOC1", "note": "[tetrahydrofuran] + CCCCCCCCCCCC[N+](C)(C)CCOc1ccccc1.O=S(=O)([N-]S(=O)(=O)C(F)(F)F)C(F)(F)F", "activity coefficient": "0.364 ± 0.033"}, {"smiles": "c1ccsc1", "note": "[thiophene] + CCCCCCCCCCCC[N+](C)(C)CCOc1ccccc1.O=S(=O)([N-]S(=O)(=O)C(F)(F)F)C(F)(F)F", "activity coefficient": "0.534 ± 0.039"}, {"smiles": "Cc1ccccc1", "note": "[toluene] + CCCCCCCCCCCC[N+](C)(C)CCOc1ccccc1.O=S(=O)([N-]S(=O)(=O)C(F)(F)F)C(F)(F)F", "activity coefficient": "0.681 ± 0.046"}]}, {"experiment": "activity coefficient (dimensionless); of the first substance listed, at infinite dilution; xn = mol fraction of the nth substance listed", "settings": "328.15 K; 101.33 kPa; Liquid; Chromatography; x1 = 0", "values": [{"smiles": "CC1CCCCC1", "note": "[methylcyclohexane] + CCCCCCCCCCCC[N+](C)(C)CCOc1ccccc1.N#C[N-]C#N", "activity coefficient": "3.67 ± 0.25"}, {"smiles": "CC1CCCCC1", "note": "[methylcyclohexane] + CCCCCCCCCCCC[N+](C)(C)CCOc1ccccc1.O=S(=O)([N-]S(=O)(=O)C(F)(F)F)C(F)(F)F", "activity coefficient": "2.39 ± 0.16"}, {"smiles": "CCCCCCCCC", "note": "[nonane] + CCCCCCCCCCCC[N+](C)(C)CCOc1ccccc1.N#C[N-]C#N", "activity coefficient": "7.69 ± 0.52"}, {"smiles": "CCCCCCCCC", "note": "[nonane] + CCCCCCCCCCCC[N+](C)(C)CCOc1ccccc1.O=S(=O)([N-]S(=O)(=O)C(F)(F)F)C(F)(F)F", "activity coefficient": "4.87 ± 0.33"}, {"smiles": "C=CCCCCCC", "note": "[oct-1-ene] + CCCCCCCCCCCC[N+](C)(C)CCOc1ccccc1.N#C[N-]C#N", "activity coefficient": "4.87 ± 0.33"}, {"smiles": "C=CCCCCCC", "note": "[oct-1-ene] + CCCCCCCCCCCC[N+](C)(C)CCOc1ccccc1.O=S(=O)([N-]S(=O)(=O)C(F)(F)F)C(F)(F)F", "activity coefficient": "3.06 ± 0.21"}, {"smiles": "CCCCCCCC", "note": "[octane] + CCCCCCCCCCCC[N+](C)(C)CCOc1ccccc1.N#C[N-]C#N", "activity coefficient": "6.7 ± 0.46"}, {"smiles": "CCCCCCCC", "note": "[octane] + CCCCCCCCCCCC[N+](C)(C)CCOc1ccccc1.O=S(=O)([N-]S(=O)(=O)C(F)(F)F)C(F)(F)F", "activity coefficient": "4.14 ± 0.28"}, {"smiles": "CCCCCO", "note": "[pentan-1-ol] + CCCCCCCCCCCC[N+](C)(C)CCOc1ccccc1.N#C[N-]C#N", "activity coefficient": "0.477 ± 0.037"}, {"smiles": "CCCCCO", "note": "[pentan-1-ol] + CCCCCCCCCCCC[N+](C)(C)CCOc1ccccc1.O=S(=O)([N-]S(=O)(=O)C(F)(F)F)C(F)(F)F", "activity coefficient": "1.31 ± 0.09"}, {"smiles": "CCCC(C)=O", "note": "[pentan-2-one] + CCCCCCCCCCCC[N+](C)(C)CCOc1ccccc1.N#C[N-]C#N", "activity coefficient": "0.899 ± 0.057"}, {"smiles": "CCCC(C)=O", "note": "[pentan-2-one] + CCCCCCCCCCCC[N+](C)(C)CCOc1ccccc1.O=S(=O)([N-]S(=O)(=O)C(F)(F)F)C(F)(F)F", "activity coefficient": "0.41 ± 0.034"}, {"smiles": "CCC(=O)CC", "note": "[pentan-3-one] + CCCCCCCCCCCC[N+](C)(C)CCOc1ccccc1.N#C[N-]C#N", "activity coefficient": "0.909 ± 0.058"}, {"smiles": "CCC(=O)CC", "note": "[pentan-3-one] + CCCCCCCCCCCC[N+](C)(C)CCOc1ccccc1.O=S(=O)([N-]S(=O)(=O)C(F)(F)F)C(F)(F)F", "activity coefficient": "0.412 ± 0.034"}, {"smiles": "CCCO", "note": "[propan-1-ol] + CCCCCCCCCCCC[N+](C)(C)CCOc1ccccc1.N#C[N-]C#N", "activity coefficient": "0.425 ± 0.035"}, {"smiles": "CCCO", "note": "[propan-1-ol] + CCCCCCCCCCCC[N+](C)(C)CCOc1ccccc1.O=S(=O)([N-]S(=O)(=O)C(F)(F)F)C(F)(F)F", "activity coefficient": "1.24 ± 0.08"}, {"smiles": "CC(C)O", "note": "[propan-2-ol] + CCCCCCCCCCCC[N+](C)(C)CCOc1ccccc1.N#C[N-]C#N", "activity coefficient": "0.494 ± 0.038"}, {"smiles": "CC(C)O", "note": "[propan-2-ol] + CCCCCCCCCCCC[N+](C)(C)CCOc1ccccc1.O=S(=O)([N-]S(=O)(=O)C(F)(F)F)C(F)(F)F", "activity coefficient": "1.22 ± 0.08"}, {"smiles": "CCCc1ccccc1", "note": "[propylbenzene] + CCCCCCCCCCCC[N+](C)(C)CCOc1ccccc1.N#C[N-]C#N", "activity coefficient": "1.71 ± 0.11"}, {"smiles": "CCCc1ccccc1", "note": "[propylbenzene] + CCCCCCCCCCCC[N+](C)(C)CCOc1ccccc1.O=S(=O)([N-]S(=O)(=O)C(F)(F)F)C(F)(F)F", "activity coefficient": "1.15 ± 0.07"}, {"smiles": "c1ccncc1", "note": "[pyridine] + CCCCCCCCCCCC[N+](C)(C)CCOc1ccccc1.N#C[N-]C#N", "activity coefficient": "0.586 ± 0.042"}, {"smiles": "c1ccncc1", "note": "[pyridine] + CCCCCCCCCCCC[N+](C)(C)CCOc1ccccc1.O=S(=O)([N-]S(=O)(=O)C(F)(F)F)C(F)(F)F", "activity coefficient": "0.296 ± 0.031"}, {"smiles": "C=Cc1ccccc1", "note": "[styrene] + CCCCCCCCCCCC[N+](C)(C)CCOc1ccccc1.N#C[N-]C#N", "activity coefficient": "0.905 ± 0.057"}, {"smiles": "C=Cc1ccccc1", "note": "[styrene] + CCCCCCCCCCCC[N+](C)(C)CCOc1ccccc1.O=S(=O)([N-]S(=O)(=O)C(F)(F)F)C(F)(F)F", "activity coefficient": "0.672 ± 0.046"}, {"smiles": "C1CCOC1", "note": "[tetrahydrofuran] + CCCCCCCCCCCC[N+](C)(C)CCOc1ccccc1.N#C[N-]C#N", "activity coefficient": "0.704 ± 0.047"}, {"smiles": "C1CCOC1", "note": "[tetrahydrofuran] + CCCCCCCCCCCC[N+](C)(C)CCOc1ccccc1.O=S(=O)([N-]S(=O)(=O)C(F)(F)F)C(F)(F)F", "activity coefficient": "0.39 ± 0.034"}, {"smiles": "c1ccsc1", "note": "[thiophene] + CCCCCCCCCCCC[N+](C)(C)CCOc1ccccc1.N#C[N-]C#N", "activity coefficient": "0.648 ± 0.044"}, {"smiles": "c1ccsc1", "note": "[thiophene] + CCCCCCCCCCCC[N+](C)(C)CCOc1ccccc1.O=S(=O)([N-]S(=O)(=O)C(F)(F)F)C(F)(F)F", "activity coefficient": "0.562 ± 0.04"}, {"smiles": "Cc1ccccc1", "note": "[toluene] + CCCCCCCCCCCC[N+](C)(C)CCOc1ccccc1.N#C[N-]C#N", "activity coefficient": "1.05 ± 0.07"}, {"smiles": "Cc1ccccc1", "note": "[toluene] + CCCCCCCCCCCC[N+](C)(C)CCOc1ccccc1.O=S(=O)([N-]S(=O)(=O)C(F)(F)F)C(F)(F)F", "activity coefficient": "0.725 ± 0.048"}, {"smiles": "C=COC(C)=O", "note": "[vinyl acetate] + CCCCCCCCCCCC[N+](C)(C)CCOc1ccccc1.N#C[N-]C#N", "activity coefficient": "1.24 ± 0.08"}]}]}
